Laboratory results: US5447957A, “Anti-inflammatory compounds” (SmithKline Beecham Corp., priority 1994, dated 1995)
pIC50: −log10 of the molar value. Where two headings read alike, the source gives them in different places.

Legend:
[1] = system: CoA-IT; test: Assay (b): CoA-IT activity in U937 cell microsomes; format: biochemical, human; details: for inhibition of CoA-IT activity in the microsomal CoA-IT assay: generally at 50 μM or less
Excerpt: Assay (b): CoA-IT Activity
The following is a method to measure CoA-IT activity and the effects of compounds on CoA-IT activity. The assay is based upon mixing cellular material containing CoA-IT activity with a stable lyso phospholipid such as […] and measuring the production of phospholipid product such as […] occurring in the absence of added CoA or CoA-fatty acids.
Any inflammatory cell that contains high levels of CoA-IT activity can be used, such as neutrophils, macrophages or cell lines such as U937 cells. […] Cells were grown without differentiation (basal state) by any agent, such as dimethyl sulfoxide. As used herein, "inflammatory cells" include, but are not limited to neutrophils, macrophages, monocytes, lymphocytes, eosinophils, basophils, and mast cells.
Microsomes were prepared using standard techniques. In this case, cells were washed with a buffer of 250 mM sucrose, 10 mM Tris, 1 mM EGTA, 1 mM MgCl2, pH 7.4 and ruptured by N2 cavitation (750 psi, 10 minutes). The ruptured cells were centrifuged 1000× g, 5 minutes. The resulting supernatant was centrifuged at 20,000×g,~20 minutes. Microsomes were prepared from this supernatant by centrifugation at 100,000× g, 60 minutes. The resulting pellet was washed once with assay buffer (150 mM NaCl, 10 mM Na2 KPO4, 1 mM EGTA, pH 7.4), recentrifuged and the pellet resuspended in assay buffer (4-20 mg protein/ml) and was stored at -80° C. until assayed.
CoA-IT activity was measured in 1.5 ml centrifuge tubes in a total volume of 100 ul. Microsomes were diluted in assay buffer to the desired protein concentration (6-20 ug/tube). The reaction was initiated by addition of [3H] 1-alkyl-2-lyso-sn-glycero-3-phosphocholine (GPC)(~0.1 uCi/tube) and 1 μM final cold 1-alkyl-2-lyso-GPC in assay buffer with 0.25 mg/ml fatty acid-poor bovine serumalbumin (BSA) (Calbiochem, La Jolla, Calif.). [3H]1-alkyl-2-lyso-GPC, approximately 50 Ci/mmol, was from NEN-Dupont (Boston, Mass.) and cold 1-alkyl-2-lyso-GPC was from Biomol (Plymouth Meeting, Penn.). Microsomes were pretreated with desired agents for the desired time (10 minutes) before the addition of [3H]1-alkyl-2-lyso-GPC. The reaction was run for the desired time (10 minutes) at 37° C. The reaction was stopped and the lipids extracted by addition of 100 ul of chloroform:methanol (1:2, v/v) followed by 100 ul of chloroform and 100 ul of 1M KCI. The samples were vortexed and centrifuged at high speed in a microfuge for 2-3 minutes. An aliquot of the chloroform-extracted materials were separated, usually by TLC in chloroform/methanol/acetic acid/water (50:25:8:4, v/v), visualized by radioscanning (Bioscan) and the product, [3H] 1-alkyl-2-acyl-GPC, was scraped and quantified by liquid scintillation spectroscopy. […] Other methods can be used to separate substrate from product, including but not limited to column chromatography, affinity chromatography and post reaction derivitization.

[2] = system: human monocytes; test: Assay (f): stimulated eicosanoid (PGE2, LTC4) release by human monocytes; format: cell-based; details: Monocyte, 0.25 h, A23187 1 μM, 15 min
Procedure: Assay (f): Measurement of stimulated eicosanoid release by human monocytes.
Leukocyte-rich leukopaks obtained from Biological Specialties (Lansdale, Pa.) were collected from male volunteers who were not taking anti-inflammatory drugs. Leukopaks were centrifuged (90× g for 15 min) twice to remove the platelet-rich plasma. The cell pellet was washed by centrifugation and resuspended in HBSS without Ca^2+ or Mg^2+. Histopaque 1077 was layered under the cell suspension and centrifuged at 400× g for 30 min to obtain the buffy coat. The interfacial buffy coat, containing monocytes and lymphocytes, was removed and saved. The buffy coat was washed twice with HBSS without Ca^2+ or Mg^2+ by centrifugation. The cell pellet (4-6×10^8 cells/30 mls) was resuspended in iso-osmotic media (RPMI-1640, 10% heat inactivated fetal bovine serum (FBS), 0.2 mM L-glutamine, 2.5 mM HEPES) and layered over an equal volume of 46% Percol mixture (10X PBS/Percol; 9.25/0.75) and 54% iso-osmotic media and centrifuged for 30 min at 1000× g (Marshall and Roshak, Biochem. Cell Biol. 71: 331-339, 1993). The monocyte population located at the interface of the Percoll gradient was removed and washed twice in HBSS without Ca^2+ or Mg^2+.
Monocytes (5×10^6 /ml) were incubated as a suspension in serum-free RPMI- 1640 medium containing the vehicle DMSO (<1%) or drug for 30 min at […] after which vehicle or stimuli was added for the indicated time. The stimulating agent is solubilized in DMSO and appropriate vehicle controls were included in all experiments. The amount of stimuli was chosen from the linear portion of a concentration versus product curve usually representing 60-80% maximal stimulation over the indicated incubation time at 37° C. (A23187, 1 μM,(15 min). The reaction was terminated by reduction of pH through addition of citric acid and centrifugation (10 min, 400× g, 4° C.). Cell viability was monitored before and after experiments using trypan blue exclusion. The cell-free media was decanted and stored at -70° C. until analyzed. Prostaglandin E2 and LTC4 were directly measured in cell-free media using enzyme immunoassay (EIA) kits purchased from Caymen Chemical Co. (Ann Arbor, Mich.). Sample or standard dilutions were made with appropriate media and analyzed in triplicate. Results were obtained by extrapolation from a standard curve prepared in the media and expressed as pg or ng/ml of sample.

[3] = system: TPA-induced Mouse Ear Inflammation; test: Assay (g): TPA-induced Mouse Ear Inflammation (ear edema and MPO); format: in vivo; details: topical; doses dexamethasone 0.2, scalaradial 0.1, WY 50,295 0.3 (unit not given)
Excerpt: The ability of compounds that inhibit CoA-IT and/or PLA2 to affect in vivo inflammatory responses may be assessed. Inflammatory responses are induced in the mouse ear by the topical application of a pro-inflammatory agent, such as 12-0-tetradecanoylphorbol 13-acetate (assay g). This produces an edematous response, as measured by increases in ear thickness, as well as increased inflammatory cellular infiltrate, as measured by increases in myeloperoxidase activity (as described in the methods). To further validate the mechanism of action inflammation induced by the direct adminstration of arachidonic acid can be used. In this case compounds altering arachidonic acid mobilization or liberation should be with our effect.
(§1) Male Balb/c inbred mice were obtained from Charle River Breeding Laboratories (Kingston, N.Y.). Within a single experiment mice (22-25 g) were age-matched. These in vivo experiments typically involved use of 5-6 animals/group.
TPA (12-0-tetradecanoylphorbol 13-acetate) (Sigma Chemical Company) in acetone ([…]) was applied to the inner and outer surfaces of the left ear of BALB/c male mice. The thickness of both ears was then measured with a dial micrometer (Mitutoyo, Japan) at both 2 and 4 hours after treatment, and the data expressed as the change in thickness (10^-3 cm) between treated and untreated ears. […] After measuring the edema, the inflammed left ears were removed and stored at -70° C. until they were assayed for MPO (myeloperoxidase) activity where appropriate.
(§2) On the day of the assay, partially thawed ear tissues were minced and then homogenized (10% w/v) with a Tissumizer homogenizer (Tekmar Co.) in 50 mM phosphate buffer (pH 6) containing 0.5% HTAB. The tissue homogenates were taken through three cycles of freeze-thaw, followed by brief sonication (10 sec). The method of Bradley et al. was used with modifications as described. The appearance of a colored product from the MPO-dependent reaction of o-dianisidine (0.167 mg/ml; Sigma) and hydrogen peroxide (0.0005%; Sigma) was measured spectrophotometrically at 460 nm. Supernatant MPO activity was quantified kinetically (change in absorbance measured over 3 min, sampled at 15-sec intervals) using a Beckman DU-7 spectrophotometer and a Kinetics Analysis package (Beckman Instruments, Inc.). One unit of MPO activity is defined as that degrading one micromole of peroxide per minute at 25° C.
Statistical analysis was done using Student's "t" test. The ED50 are values which cause a 50% inhibition of the inflammatory response and are calculated by regression analysis of the dose response data.

[4] = system: Arachidonic acid induced ear inflammation; test: Assay (h): Arachidonic acid induced ear inflammation (ear edema and MPO); format: in vivo, mouse; details: topical; doses dexamethasone 0.2, scalaradial 0.1, WY 50,295 0.3 (unit not given)
Procedure: as §1
as §2, with “The appearance of a colored product from the MPO-dependent reaction of o-dianisidine (0.167 mg/ml; Sigma) and hydrogen peroxide (0.0005%; Sigma) was measured spectrophotometrically at 460 nm.” left out
Arachidonic acid is dissolved in acetone (1 mg/ear) to the left ear of BALB/c male mice. The thickness of both ears was measured with a constant pressure thickness guage 1 hour after treatment and the data expressed as the change in thickness between treated and untreated ears. Test compounds or vehicle are given at the time of AA applciation. The inflammatory cell infiltration is measured by MPO activity as described above in the TPA ear edema assay. After the edema measurements are made, the inflamed ears are removed and assayed for MPO activity.

Structure (SMILES): CCCCCCCCNC(=O)Nc1cc(C(F)(F)F)ccc1Oc1ccccc1C(=O)O [2-[2-[3-(Octyl)ureido]-4-trifluoromethylphenoxy]benzoic acid]
- inhibition of CoA-IT activity in the microsomal CoA-IT assay [1]: inhibit CoA-IT activity

Structure (SMILES): O=S1(=O)CCn2c1nc(-c1ccc(F)cc1)c2-c1ccncc1 [6-(4'-Fluorophenyl)-5-(4-pyridyl)2,3-dihydroimidzo-[2,1-b]thiazole-dioxide]
- effect on CoA-IT activity ([1]; at concentrations up to 100 μM): no effect

Structure (SMILES): Fc1ccc(-c2nc3n(c2-c2ccncc2)CCS3)cc1 [6-(4'-Fluorophenyl)-5-(4-pyridyl)-2,3-dihydroimidzo-[2,1-b]thiazole]
- effect on CoA-IT activity ([1]; at concentrations up to 100 μM): no effect

Structure (SMILES): Cc1cc(C(C)(C)C)c(O)c(C(C)(C)C)c1 [BHT]
- effect on CoA-IT activity ([1]; at concentrations up to 100 μM): no effect

Structure (SMILES): CN(C)CCC=C1c2ccccc2COc2ccccc21 [Doxepine]
- effect on CoA-IT activity ([1]; at concentrations up to 100 μM): did not inhibit

Structure (SMILES): O=C(Nc1ccc(Br)cc1)Nc1cc(C(F)(F)F)ccc1Oc1ccccc1C(=O)O [Example 1, 2-[2-[3-(4-Bromophenyl)ureido]-4-(trifluoromethyl)phenoxy]benzoic acid]
- inhibition of CoA-IT activity in the microsomal CoA-IT assay [1]: inhibit CoA-IT activity
- pIC50 ([2]; read-out: IC50 for LTC4 release): 6.52
- pIC50 ([2]; read-out: IC50 of PGE2 release): < 5.52

Structure (SMILES): CC(C)(C)CC(C)(C)c1ccc(Oc2ccc(C(F)(F)F)cc2NC(=O)Nc2cc(C(F)(F)F)cc(C(F)(F)F)c2)c(C(=O)O)c1 [Example 4, 2-[2-[3-[3,5-Bis (trifluoromethyl)phenyl]ureido]-4-trifluoromethylphenoxy]-5-(1,1,3,3-tetramethylbutyl)benzoic acid]
- inhibition of CoA-IT activity in the microsomal CoA-IT assay [1]: inhibit CoA-IT activity

Structure (SMILES): CCC(C)(C)c1ccc(Oc2ccc(C(F)(F)F)cc2NC(=O)Nc2cc(C(F)(F)F)cc(C(F)(F)F)c2)c(C(=O)O)c1 [Example 5, 2-[2-[3-[3,5-Bis (trifluoromethyl)phenyl]ureido]-4-trifluoromethylphenoxy]-5-(1,1,-dimethylpropyl)benzoic acid]
- inhibition of CoA-IT activity in the microsomal CoA-IT assay [1]: inhibit CoA-IT activity

Structure (SMILES): COC(=O)c1ccccc1Oc1ccc(C(F)(F)F)cc1NC(=O)Nc1cc(C(F)(F)F)cc(C(F)(F)F)c1 [Example 8, Methyl 2-[2-[3-[3,5-Bis(trifluoromethyl)phenyl]ureido]-4-trifluoromethylphenoxy]benzoate]
- inhibition of CoA-IT activity in the microsomal CoA-IT assay [1]: inhibit CoA-IT activity

Structure (SMILES): C[C@H](C(=O)O)c1ccc2cc(OCc3ccc4ccccc4n3)ccc2c1 [WY 50,295]
- TPA % change in edema [3]: -18%
- AA % change in edema [4]: -50%
- change in MPO for AA [4]: -90

Structure (SMILES): COc1cccc2c1cc([N+](=O)[O-])c1c(C(=O)O)cc3c(c12)OCO3 [aristolochic acid]
- effect on CoA-IT activity ([1]; at concentrations up to 500 μM): no effect

Structure (SMILES): C[C@@H]1C[C@H]2[C@@H]3CCC4=CC(=O)C=C[C@]4(C)[C@@]3(F)[C@@H](O)C[C@]2(C)[C@@]1(O)C(=O)CO [dexamethasone]
- TPA % change in edema [3]: -50%
- change in MPO for TPA model [3]: -54
- AA % change in edema [4]: -10%
- change in MPO for AA [4]: 0

Structure (SMILES): COc1ccc2c(c1)c(CC(=O)O)c(C)n2C(=O)c1ccc(Cl)cc1 [indomethicin]
- effect on CoA-IT activity ([1]; at concentrations up to 100 μM): no effect

Structure (SMILES): COc1ccc2cc([C@H](C)C(=O)O)ccc2c1 [naproxen]
- effect on CoA-IT activity ([1]; at concentrations up to 100 μM): no effect

Structure (SMILES): CCN(CC)CCCC(C)Nc1c2ccc(Cl)cc2nc2ccc(OC)cc12 (centres unmarked) [quinacrine]
- effect on CoA-IT activity ([1]; at concentrations up to 500 μM): no effect

Structure (SMILES): CC(=O)O[C@H]1C[C@@H]2[C@@]3(C)CCCC(C)(C)[C@@H]3CC[C@@]2(C)[C@@H]2CC=C(C=O)[C@H](C=O)[C@@]12C [scalaradial]
- AA % change in edema [4]: -11%
